From US4311699A, “Aminoacid derivatives of cephalosporin compounds” (priority 1980, dated 1982) come the findings set out here.

Holding throughout (assay): in vitro antibacterial activity, minimal inhibitory concentration
What all share (assay type): cell-based

Test [1] concerns Pseudomonas BRK 12-4-4. To be noted: Pseudomonas BRK 12-4-4, in vitro; for MIC: BRK1244. From the text:
(§1) The compounds of the invention are new chemical compounds that are used as pharmacological agents and especially as broad spectrum antibacterial agents. They are active in vitro against strains of both gram-positive and gram-negative bacteria.
(§2) Minimal Inhibitory Concentration (μg/ml)

The test system of test [2] is Pseudomonas #28. The settings on record: for MIC: read-out: Minimal Inhibitory Concentration.
Source text: as §1, §2

The test system of test [3] is Klebs. pneu.
Source text: as §1, §2

Test [4] has as its system Strep. fec.
Source text: as §1, §2

Test [5] has as its system E. coli Vogel. The settings on record: for MIC: Escherichia coli.
Source text: as §1, §2

Test [6] concerns Staph. aureus S18733. The settings on record: for MIC: Staphylococcus aureus.
Source text: as §1, §2

In test [7] the test system is Prot. vulg.
Source text: as §1, §2

Test [8] relates to Entero. cloacae. The settings on record: for MIC: Enterobacter cloacae.
Source text: as §1, §2

Test [9] deals with Serr. marces.
Source text: as §1, §2

Test [10] has as its system Staph. aureus UC-76. The settings on record: Staph. aureus UC-76, in vitro; for MIC: Staphylococcus aureus, UC76.
Source text: as §1, §2

In test [11] the test system is E. coli Brig. The settings on record: for MIC: Escherichia coli.
Source text: as §1, §2

The test system of test [12] is Pseudomonas UI 18. To be noted: Pseudomonas UI 18, in vitro; for MIC: UI18.
Source text: as §1, §2

Values after ≈ are worked out from the molar mass of the structure shown. Like-named read-outs stand apart in the source and are kept apart here.

Take `CC(=O)OCC1=C(C(=O)O)N2C(=O)[C@@H](NC(=O)[C@H](NC(=O)c3cnc(-c4ccc(NC(=O)[C@@H](C)N)cc4)nc3O)c3ccccc3)[C@H]2SC1` [Example 18, N-[2-[4-(D-Alanylamino)phenyl]-4-hydroxy-5-pyrimidinylcarbonyl]-7-[D-2-amino-2-phenylacetamido]-3-acetoxymethyl-3cephem-4-carboxylic acid]: the MIC was determined as 6.3 µg/mL (≈ 9.13 µM) in [1]; 3.1 µg/mL (≈ 4.49 µM) in [2] (Pseudomonas #28, in vitro); 25 µg/mL (≈ 36.2 µM) in [3]; 25 µg/mL (≈ 36.2 µM) in [4]; 12.5 µg/mL (≈ 18.1 µM) in test [5]; 6.3 µg/mL (≈ 9.13 µM) in test [6]. Moreover, the MIC in test [7] was 25 µg/mL (≈ 36.2 µM); in test [8], 50 µg/mL (≈ 72.5 µM); in test [9], more than 50 µg/mL; in [10], 1.6 µg/mL (≈ 2.32 µM); in test [11] it was 50 µg/mL (≈ 72.5 µM); in [12], 1.6 µg/mL (≈ 2.32 µM).
With `CC(=O)NC(CC(C)C)C(=O)Nc1ccc(-c2ncc(C(=O)N[C@@H](C(=O)N[C@@H]3C(=O)N4C(C(=O)O)=C(COC(C)=O)CS[C@H]34)c3ccccc3)c(O)n2)cc1` (mixture of isomers) [Example 4, N-[2-[4-(N-Acetyl-DL-leucylamino)phenyl]-4-hydroxy-5-pyrimidinylcarbonyl]-7-[D-2-amino-2-phenylacetamido]-3-acetoxymethyl-3-cephem-4-carboxylic acid], the MIC is 12.5 µg/mL in [1]; 12.5 µg/mL in test [2] (Pseudomonas #28, in vitro); 25 µg/mL in test [3]; 50 µg/mL in [4]; 6.3 µg/mL in [5]; 6.3 µg/mL in test [6]. The MIC in [7] is 25 µg/mL; in test [8], 25 µg/mL; in test [9] it was more than 50 µg/mL; in [10], 1.6 µg/mL; in [11], 25 µg/mL; in [12] it was 12.5 µg/mL.
Regarding `CC(=O)NCCCC(=O)Nc1ccc(-c2ncc(C(=O)N[C@@H](C(=O)N[C@@H]3C(=O)N4C(C(=O)O)=C(COC(C)=O)CS[C@H]34)c3ccccc3)c(O)n2)cc1` [Example 16, N-[2-[4-(N-Acetyl-γ-aminobutyrylamino)phenyl]-4-hydroxy-5-pyrimidinylcarbonyl]-7-[D-2-amino-2-phenylacetamido]-3-acetoxy-methyl-3-cephem-4-carboxylic acid], the MIC in test [1] turned out to be 12.5 µg/mL (≈ 16.8 µM); in test [2] (Pseudomonas #28, in vitro) it was 6.3 µg/mL (≈ 8.45 µM); in test [3] it was 12.5 µg/mL (≈ 16.8 µM); in test [4], 25 µg/mL (≈ 33.5 µM); in test [5], 6.3 µg/mL (≈ 8.45 µM); in test [6] it was 3.1 µg/mL (≈ 4.16 µM). For the same compound, the MIC is 25 µg/mL (≈ 33.5 µM) in test [7]; 25 µg/mL (≈ 33.5 µM) in [8]; more than 50 µg/mL in [9]; 0.8 µg/mL (≈ 1.07 µM) in test [10]; 50 µg/mL (≈ 67 µM) in [11]; 12.5 µg/mL (≈ 16.8 µM) in [12].
As to `CC(=O)NC(C)C(=O)Nc1ccc(-c2ncc(C(=O)N[C@@H](C(=O)NC3C(=O)N4C(C(=O)O)=C(CSc5nnc(C)s5)CSC34)c3ccccc3)c(O)n2)cc1` (mixture of isomers) [Example 40, N-[2-[4-(N-Acetyl-DL-alanylamino)phenyl]-4-hydroxy-5-pyrimidinylcarbonyl]-7-[D-2-amino-2-phenylacetamido]-3-[[(5-methyl-1,3,4-thiadiazoyl-2-thio]methyl]-3-cephem-4-carboxylic acid], the MIC in [1] came out at 12.5 µg/mL; in [2] (Pseudomonas #28, in vitro), 12.5 µg/mL; in test [3], 3.1 µg/mL; in test [4] it was 25 µg/mL; in test [5], 3.1 µg/mL; in test [6] it was 3.1 µg/mL. In addition, the MIC in [7] is 50 µg/mL; in [8] it was 25 µg/mL; in test [9] it was 50 µg/mL; in test [10], 0.4 µg/mL; in [11] it was 12.5 µg/mL; in [12], 6.3 µg/mL.
For the compound `CC(=O)OCC1=C(C(=O)O)N2C(=O)[C@@H](NC(=O)[C@H](NC(=O)c3cnc(-c4ccc(NC(=O)C5CCC(=O)N5)cc4)nc3O)c3ccccc3)[C@H]2SC1` (mixture of isomers) [Example 6, N-[2-]4-((5-oxo-DL-prolyl)amino)phenyl]-4-hydroxy-5-pyrimidinylcarbonyl]-7-[D-2-amino-2-phenylacetamido]-3-acetoxymethyl-3-cephem-4-carboxylic acid], the MIC in [1] turned out to be 12.5 µg/mL; in [2] (Pseudomonas), 6.3 µg/mL; in [3], 25 µg/mL; in test [4], 50 µg/mL; in test [5] it was 12.5 µg/mL; in test [6], 6.3 µg/mL. Also, the MIC in [7] is 50 µg/mL; in [8] it was 50 µg/mL; in test [9], more than 50 µg/mL; in test [10], 1.6 µg/mL; in [11], 50 µg/mL; in test [12] it was 12.5 µg/mL.
As for `CC(=O)NC(C)C(=O)Nc1ccc(-c2ncc(C(=O)N[C@@H](C(=O)N[C@@H]3C(=O)N4C(C(=O)O)=C(COC(C)=O)CS[C@H]34)c3ccccc3)c(O)n2)cc1` (mixture of isomers) [Example 8, N-[2-[4-(N-Acetyl-DL-alanylamino)phenyl]-4-hydroxy-5-pyrimidinylcarbonyl]-7-[D-2-amino-2-phenylacetamido]-3-acetoxymethyl-3-cephem-4-carboxylic acid], the MIC in [1] worked out at 12.5 µg/mL; in [2] (Pseudomonas #28, in vitro) it was 6.3 µg/mL; in [3], 6.3 µg/mL; in test [4], 50 µg/mL; in test [5], 6.3 µg/mL; in test [6] it was 1.6 µg/mL. The MIC in [7] was 50 µg/mL; in [8], 50 µg/mL; in test [9], more than 50 µg/mL; in test [10] it was 1.6 µg/mL; in test [11] it was 25 µg/mL; in test [12], 6.3 µg/mL.
Take `CC(=O)NC(C)C(=O)Nc1ccc(-c2ncc(C(=O)N[C@@H](C(=O)N[C@@H]3C(=O)N4C(C(=O)O)=C(COC(C)=O)CS[C@H]34)c3ccc(O)cc3)c(O)n2)cc1` (mixture of isomers) [Example 9, N-[2-[4-(N-Acetyl-DL-alanylamino)phenyl]-4-hydroxy-5-pyrimidinylcarbonyl]-7-[D-2-amino-2-(4-hydroxyphenyl)acetamido]-3-acetoxymethyl-3-cephem-4-carboxylic acid]: the MIC is 3.1 µg/mL in test [1]; 1.6 µg/mL in test [2] (Pseudomonas #28, in vitro); 12.5 µg/mL in [3]; 50 µg/mL in test [4]; 12.5 µg/mL in test [5]; 6.3 µg/mL in test [6]. Besides, the MIC in test [7] was 12.5 µg/mL; in test [8], 50 µg/mL; in [9], more than 50 µg/mL; in test [10] it was 3.1 µg/mL; in test [11], 50 µg/mL; in test [12], 3.1 µg/mL.
On to `CC(=O)NC(C)C(=O)Nc1ccc(-c2ncc(C(=O)N[C@@H](C(=O)NC3C(=O)N4C(C(=O)O)=C(CSc5nnnn5C)CSC34)c3ccc(O)cc3)c(O)n2)cc1` (mixture of isomers) [Example 32, N-[2-[4-(N-Acetyl-DL-alanylamino)phenyl]-4-hydroxy-5-pyrimidinylcarbonyl]-7-[D-2-amino-2-(4-hydroxyphenyl)acetamido]-3-[[(1-methyl-1H-tetrazol-5-yl)thio]methyl]-3-cephem-4-carboxylic acid], for which the MIC in test [1] came out at 6.3 µg/mL; in test [2] (Pseudomonas #28, in vitro) it was 3.1 µg/mL; in test [3], 1.6 µg/mL; in test [4], 50 µg/mL; in test [5], 1.6 µg/mL; in [6], 6.3 µg/mL. Further, the MIC was 12.5 µg/mL in test [7]; 6.3 µg/mL in test [8]; more than 50 µg/mL in test [9]; 3.1 µg/mL in test [10]; 6.3 µg/mL in test [11]; 6.3 µg/mL in test [12].
In the case of `CC(=O)OCC1=C(C(=O)O)N2C(=O)C(NC(=O)[C@H](NC(=O)c3cnc(-c4ccc(NC(=O)[C@@H]5C[C@@H](O)CN5C(C)=O)cc4)nc3O)c3ccccc3)[C@H]2SC1` (stereo partly drawn) [Example 15, N-[2-[4-(N-Acetyl-L-hydroxyprolylamino)phenyl]-4-hydroxy-5-pyrimidinylcarbonyl]-7-[D-2-amino-2-phenylacetamido]-3-acetoxymethyl-3-cephem-4-carboxylic acid], the “Minimal Inhibitory Concentration” value came out at 12.5 µg/mL in [1]; 3.1 µg/mL in test [2] (Pseudomonas #28, in vitro); 12.5 µg/mL in test [3]; 25 µg/mL in test [4]; 6.3 µg/mL in test [5]; 6.3 µg/mL in test [6]. The “Minimal Inhibitory Concentration” value was 50 µg/mL in test [7]; more than 50 µg/mL in test [8]; more than 50 µg/mL in test [9]; 1.6 µg/mL in [10]; 50 µg/mL in [11]; 3.1 µg/mL in test [12].
